In patent EP2271935B1, “METHOD AND KIT FOR THE EX VIVO EVALUATION OF THE RESPONSE OF A TUMOR TO CONDITIONS TO BE TESTED” (Universität Leipzig, priority 2008, dated 2009):

Tested on: colonies of epithelial cells of head and neck squamous carcinoma
Assay: ex vivo colony formation assay of collagenase-digested tumor samples, epithelial colonies counted after cytokeratin staining
Type: cell-based, human
Settings: for Range from / Range to: concentrations with log-linear relation to response; for Range from / Range to / Cut-off concentrations Sample 1 / Cut-off concentrations Sample 2 / Cut-off concentrations Sample 3 / IC50 Sample 1 / IC50 Sample 2 / IC50 Sample 3: docetaxel (TPL = 0.55 µmol/l), 72 h
Method: Thereafter the tumors which usually have a size of about 0.1 to 1 ml were mechanically disintegrated by mincing to tissue pats of about 0.1 to 10 mm^3 and immersed each in 30 ml of pre-warmed riboflavin-free RPMI 1640 medium without phenol red and containing 14.5 mmol/l HEPES, 13.5 mmol/l NaHCO3, stabilized glutamine, 10% (v/v) fetal calf serum, the antibiotics penicillin, streptomycin and amikacin, as well as the antimycotic nystatin. The tumor cells were always handled at room temperature or warmer and never exposed to light other than the light of a sodium discharge lamp with an emission wavelength of 589 nm. Immediately after mechanical disintegration 120 U/ml collagenase type IV of Clostridium histolyticum (EC 3.4.24.3, type IV) were added and the mixture incubated for 16 h at 36.5°C in brown glass bottles in an incubator. To ensure optimal incubation conditions, the CO2 concentration therein was constantly kept at 3.5% and relative humidity at 95%. Following enzymatic disintegration by collagenase the digest was centrifuged for 10 min at 1200 rpm, the resulting pellets were carefully re-suspended in fresh culture medium supplemented as described but without collagenase. […] Ex-vivo testing was performed 72 h using the same culture conditions as during the collagenase digest.
After 72 hours of incubation, the wells were rinsed twice with phosphate buffered saline, pH 7.8, and the adherent cells and cell colonies were fixed with ice-cold 90% methanol for 10 min. Fixed specimens were exposed for 5 min to PBS/ 0.1% Tween-20® (Polysorbate 20) before preincubation with 1% serum in PBS/ 0.1% Tween-20 for 45 min, followed by overnight incubation at 4°C with the primary antibody (anti-cytokeratin; SantaCruz sc-8018, C11) diluted 1:400 in PBS/ 0.1% Tween-20 supplemented with 0.2 % serum. After three rinses for 10 min each with PBS/ 0.2 % Serum/ 0.1% Tween-20, specimens were incubated for another 2 h at room temperature in the dark with the secondary antibody (anti-mouse IgG coupled with Cy2 or Cy3 fluorescence dye, Jackson ImmunoResearch, Cambs, UK) in a 1:400 dilution in PBS/ 0.2 % Serum/ 0.1 % Tween-20 followed by three rinses with PBS/ 0.2 % Serum/ 0.1 % Tween-20, and a final rinse with distilled water for 2 min. The test plate was air dried, and fluorescence signals were imaged with the Zeiss Axiovert 200M inverted fluorescence microscope (Zeiss, Jena, Germany) using Zeiss filter sets 44 and 43HE for Cy2 and Cy3, respectively. The evaluation of the colonies is possible using every given fluorescence microscope but is eased by the use of dedicated filter sets. […] The test is utilized by separately counting of colonies of different types (stained epithelial, unstained stromal cells), the numbers of colonies in the different treatments (e.g. doses of radiation or concentrations of chemotherapeutics) are recorded and kept for further analysis.
(§1) Freshly resected probes of head and neck squamous carcinoma of 14 untreated patients were investigated and treated if not stated otherwise as described in example 1. Three fragments were each excised from different tumor areas, weighed, and treated with collagenase as outlined in Example 1.
1.5 mg of tumor was applied to a well.
as §1, with “Example 1. Collagenase digests were exposed to concentrations in the range from 0.5- to 32-fold the tolerated plasma levels (TPL) of docetaxel: (TPL = 0.55 µmol/l).” for “Example 1.”

IC50 Sample 1 (Tumor-No. 1): 4.565 n-fold TPL | IC50 Sample 2 (Tumor-No. 1): 4.718 n-fold TPL | IC50 Sample 3 (Tumor-No. 1): 5.040 n-fold TPL | IC50 Sample 1 (Tumor-No. 2): 1.486 n-fold TPL | IC50 Sample 2 (Tumor-No. 2): 0.579 n-fold TPL | IC50 Sample 3 (Tumor-No. 2): 1.157 n-fold TPL | IC50 Sample 1 (Tumor-No. 3): 16.404 n-fold TPL | IC50 Sample 2 (Tumor-No. 3): 10.711 n-fold TPL | IC50 Sample 3 (Tumor-No. 3): 19.173 n-fold TPL | IC50 Sample 1 (Tumor-No. 4): 27.819 n-fold TPL | IC50 Sample 3 (Tumor-No. 4): 23.393 n-fold TPL | IC50 Sample 1 (Tumor-No. 5): 3.891 n-fold TPL | IC50 Sample 3 (Tumor-No. 5): 9.987 n-fold TPL | IC50 Sample 1 (Tumor-No. 6): 8.208 n-fold TPL | IC50 Sample 2 (Tumor-No. 6): 6.690 n-fold TPL | IC50 Sample 3 (Tumor-No. 6): 8.404 n-fold TPL | IC50 Sample 1 (Tumor-No. 7): 3.616 n-fold TPL | IC50 Sample 2 (Tumor-No. 7): 3.629 n-fold TPL | IC50 Sample 3 (Tumor-No. 7): 2.692 n-fold TPL | IC50 Sample 1 (Tumor-No. 8): 6.709 n-fold TPL | IC50 Sample 3 (Tumor-No. 8): 5.282 n-fold TPL | IC50 Sample 1 (Tumor-No. 9): 6.964 n-fold TPL | IC50 Sample 2 (Tumor-No. 9): 7.495 n-fold TPL
SMILES: CC(=O)O[C@@]12CO[C@@H]1C[C@H](O)[C@@]1(C)C(=O)[C@H](O)C3=C(C)[C@@H](OC(=O)[C@H](O)[C@@H](NC(=O)OC(C)(C)C)c4ccccc4)C[C@@](O)([C@@H](OC(=O)c4ccccc4)[C@H]21)C3(C)C [docetaxel]
Range from (Tumor-No. 1): 2.0 n-fold TPL | Range to (Tumor-No. 1): 8.0 n-fold TPL | Range from (Tumor-No. 2): 0.5 n-fold TPL | Range to (Tumor-No. 2): 32.0 n-fold TPL | Range from (Tumor-No. 3): 2.0 n-fold TPL | Range to (Tumor-No. 3): 32.0 n-fold TPL | Range from (Tumor-No. 4): 4.0 n-fold TPL | Range to (Tumor-No. 4): 32.0 n-fold TPL | Range from (Tumor-No. 5): 0.5 n-fold TPL | Range to (Tumor-No. 5): 32.0 n-fold TPL | Range from (Tumor-No. 6): 2.0 n-fold TPL | Range to (Tumor-No. 6): 32.0 n-fold TPL | Range from (Tumor-No. 7): 2.0 n-fold TPL | Range to (Tumor-No. 7): 32.0 n-fold TPL | Range from (Tumor-No. 8): 1.0 n-fold TPL | Range to (Tumor-No. 8): 32.0 n-fold TPL | Range from (Tumor-No. 9): 0.5 n-fold TPL | Range to (Tumor-No. 9): 32.0 n-fold TPL | effect on number of epithelial colonies at low concentrations (concentrations ≤ TPL, seven tumors (No. 2, 3, 4, 5, 6, 8 and 9)): hormesis | Cut-off concentrations Sample 1 (Tumor-No. 1): 8 n-fold TPL | Cut-off concentrations Sample 2 (Tumor-No. 1): 8 n-fold TPL | Cut-off concentrations Sample 3 (Tumor-No. 1): 8 n-fold TPL | Cut-off concentrations Sample 1 (Tumor-No. 2): X (not more than 5 colonies at most have appeared at the highest dose rate) | Cut-off concentrations Sample 2 (Tumor-No. 2): X (not more than 5 colonies at most have appeared at the highest dose rate) | Cut-off concentrations Sample 3 (Tumor-No. 2): X (not more than 5 colonies at most have appeared at the highest dose rate) | Cut-off concentrations Sample 1 (Tumor-No. 3): X (not more than 5 colonies at most have appeared at the highest dose rate) | Cut-off concentrations Sample 2 (Tumor-No. 3): X (not more than 5 colonies at most have appeared at the highest dose rate) | Cut-off concentrations Sample 3 (Tumor-No. 3): X (not more than 5 colonies at most have appeared at the highest dose rate) | Cut-off concentrations Sample 1 (Tumor-No. 4): XX (more than 5 colonies have appeared at the highest dose rate) | Cut-off concentrations Sample 2 (Tumor-No. 4): X (not more than 5 colonies at most have appeared at the highest dose rate) | Cut-off concentrations Sample 3 (Tumor-No. 4): XX (more than 5 colonies have appeared at the highest dose rate) | Cut-off concentrations Sample 1 (Tumor-No. 5): X (not more than 5 colonies at most have appeared at the highest dose rate) | Cut-off concentrations Sample 2 (Tumor-No. 5): XX (more than 5 colonies have appeared at the highest dose rate) | Cut-off concentrations Sample 3 (Tumor-No. 5): X (not more than 5 colonies at most have appeared at the highest dose rate) | Cut-off concentrations Sample 1 (Tumor-No. 6): X (not more than 5 colonies at most have appeared at the highest dose rate) | Cut-off concentrations Sample 2 (Tumor-No. 6): X (not more than 5 colonies at most have appeared at the highest dose rate) | Cut-off concentrations Sample 3 (Tumor-No. 6): X (not more than 5 colonies at most have appeared at the highest dose rate) | Cut-off concentrations Sample 1 (Tumor-No. 7): 32 n-fold TPL | Cut-off concentrations Sample 2 (Tumor-No. 7): 32 n-fold TPL | Cut-off concentrations Sample 3 (Tumor-No. 7): 32 n-fold TPL | Cut-off concentrations Sample 1 (Tumor-No. 8): 32 n-fold TPL | Cut-off concentrations Sample 2 (Tumor-No. 8): 32 n-fold TPL | Cut-off concentrations Sample 3 (Tumor-No. 8): X (not more than 5 colonies at most have appeared at the highest dose rate) | Cut-off concentrations Sample 1 (Tumor-No. 9): X (not more than 5 colonies at most have appeared at the highest dose rate) | Cut-off concentrations Sample 2 (Tumor-No. 9): X (not more than 5 colonies at most have appeared at the highest dose rate) | Cut-off concentrations Sample 3 (Tumor-No. 9): X (not more than 5 colonies at most have appeared at the highest dose rate)
